In article PMC9916441, “Resveratrol Derivative Exhibits Marked Antiproliferative Actions, Affecting Stemness in Pancreatic Cancer Cells” (International Journal of Molecular Sciences, 2023):

Legend:
[1] = test system: AsPC-1; experiment: MTT cell viability assay; type: cell-based, human; details: for IC50: Homo sapiens, ASPC1, AsPC-1, MTT, 72 h
Procedure: (§1) The cell viability was assessed using MTT assay, as previously described. Briefly, the cells were seeded in 96-well plates (4 × 10^3 cells/well) and were treated for 72 h with different concentrations of RSV, DF5, and DF12. The IC50 values were extrapolated from dose–response curves and calculated using the CompuSyn software (https://www.combosyn.com/). The selectivity index (SI) values were calculated as ratios between the IC50 values of compounds in normal HFF-1 fibroblast cells and the IC50 values of the same compounds in the PC cell lines.

[2] = test system: BxPC-3; experiment: MTT cell viability assay; type: cell-based, human; details: for IC50: Homo sapiens, BxPC-3, MTT, 72 h
Procedure: as §1

[3] = test system: Capan-2; experiment: MTT cell viability assay; type: cell-based, human; details: for IC50 / viability at 50 µM: Homo sapiens, Capan-2, MTT; for IC50: 72 h; for viability at 50 µM: plateau reached already at 50 µM, read-out: residual viability
Procedure: as §1

[4] = test system: normal HFF-1 fibroblast cells; experiment: MTT cell viability assay on normal fibroblasts; type: cell-based, human; details: 72 h
Procedure: as §1

[5] = test system: AsPC-1; experiment: Colony formation assay; type: cell-based, human; details: AsPC-1, 20 µM, 72 h treatment
Procedure: (§2) A colony formation assay was performed as previously described. Briefly, the PC cells were seeded in 6-well plates, incubated for 24 h, and then treated for 72 h with 20 μM DF5, DF12, and RSV or with vehicle (DMSO) as indicated. After 4 days, following methanol fixation and crystal violet staining, the colonies of at least 30 cells were counted.

[6] = test system: BxPC-3; experiment: Colony formation assay; type: cell-based, human; details: BxPC-3, 20 µM, 72 h treatment
Procedure: as §2

[7] = test system: Capan-2; experiment: Colony formation assay; type: cell-based, human; details: Capan-2, 20 µM, 72 h treatment
Procedure: as §2

[8] = test system: AsPC-1; experiment: Flow cytometry immunophenotyping of CD133+EpCAM+ cancer stem-like subpopulation; type: cell-based, human; details: AsPC-1, 20 μM, 72 h
Procedure: (§3) The expression of CD133 and EpCAM surface antigens was evaluated using flow cytometry. Briefly, the PC cells were seeded in 6-well plates and treated for 72 h with 20 μM DF5, RSV, or with vehicle (DMSO). After treatment, the cells were collected in PBS and stained at room temperature in the dark for 30 min with PE-CD133, FITC-EpCAM antibodies, and Reactive Dye. After labeling, the samples were washed in PBS by centrifugation at 1500 rpm for 10 min, to remove excess antibodies. Flow cytometer performance, stability, and data reproducibility were daily checked by using the CS&T quality control Module (BD Biosciences). The gating strategy and the evaluation of non-specific fluorescence was determined using fluorescence minus one (FMO) controls. The data were acquired with FACSVerse analyzer equipped with a volumetric count module (BD Biosciences, San Jose, CA, USA) and are expressed as the percentage of positive cells.

[9] = test system: BxPC-3; experiment: as above; type: cell-based, human; details: BxPC-3, 20 μM, 72 h
Procedure: as §3

[10] = test system: Capan-2; experiment: as above; type: cell-based, human; details: Capan-2, 20 μM, 72 h
Procedure: as §3

[11] = test system: AsPC-1, BxPC-3 and Capan-2 PC cell lines; experiment: Cell growth, trypan blue exclusion test; type: cell-based, human; details: 50 μM, counted at 24, 48 and 72 h, three PC cell lines, vs control
Procedure: The cell counting was performed using the trypan blue exclusion test. Briefly, PC cells were seeded in 24-well plates (5 × 10^4 cells/well) and then were treated with 50 μM of DF5, RSV, or with vehicle and counted at 24, 48, and 72 h.

[12] = test system: AsPC-1; experiment: Apoptosis assay, annexin-V staining by flow cytometry; type: cell-based, human; details: 24 h
Procedure: (§4) The apoptosis assay was performed essentially as previously described. the analyses were performed using a CytoFLEX flow cytometer, using the FL1 detector in linear mode and the CytoExpert software (Beckmann Coulter, Milano, Italy).

[13] = test system: BxPC-3; experiment: as above; type: cell-based, human; details: 24 h
Procedure: as §4

[14] = test system: Capan-2; experiment: as above; type: cell-based, human; details: 24 h
Procedure: as §4

[15] = test system: poly-(ADP-ribose) polymerase (PARP); experiment: Western blot of PARP cleavage in PC cell lines; type: cell-based, human; details: vs untreated cells
Procedure: (§5) The PC cell lines treated with 50 μM DF5, RSV, or with vehicle (DMSO) were lysed in a cell lysis buffer containing PMSF, protease inhibitors cocktails, and phosphatase inhibitors. The protein lysate quantification and immunoblot analyses were performed as previously described.

[16] = test system: p-SER^139H2AX; experiment: Western blot of phospho-H2AX (γH2AX) in PC cell lines; type: cell-based, human
Procedure: as §5

[17] = test system: AsPC-1, BxPC-3 and Capan-2 PC cell lines; experiment: Cell cycle analysis by flow cytometry; type: cell-based, human; details: 50 μM, 24 h
Procedure: To perform the cell cycle analysis, the PC cells (3 × 10^5) were collected, fixed in 70% cold ethanol, and kept at 4 °C overnight. The collected cells were incubated at 4 °C overnight in 5 μg/mL PI (final concentration) and 100 μg/mL RNAse (final concentration). The cell cycle profiles were analyzed as previously described.

[18] = test system: Cyclin D3; experiment: Western blot of cyclin D3 in PC cell lines; type: cell-based, human; details: 50 μM
Procedure: as §5

[19] = test system: cyclin B1/CDK1 complex; experiment: Western blot of cyclin B1, Cdc2/Cdk1 and p-Cdc2 (Thr161) in PC cell lines; type: cell-based, human; details: 50 μM, BxPC-3
Procedure: as §5

[20] = design: method as in PMID 25224342; details: based on solubility of ref 43; cited from earlier work

Compound: Oc1ccc(/C=C/c2cc(O)cc(O)c2)cc1 [RSV, 3,5,4′-trihydroxy-trans-stilbene, reference compound]
- IC50 [1]: 29 µM
- Selectivity Index (SI) AsPC-1 ([1]; SI = IC50 on normal HFF-1 fibroblast cells/IC50 on AsPC-1): > 3.45
- IC50 [2]: 48.7 µM
- Selectivity Index (SI) BxPC-3 ([2]; SI = IC50 on normal HFF-1 fibroblast cells/IC50 on BxPC-3): > 2.05
- IC50 [3]: > 100 µM
- viability at 50 µM [3]: > 50%
- Selectivity Index (SI) Capan-2 ([3]; SI = IC50 on normal HFF-1 fibroblast cells/IC50 on Capan-2): > 1.00
- toxicity against normal HFF-1 fibroblast cells ([4]; up to 100 μM): negligible toxicity
- IC50 ([4]; Homo sapiens, normal HFF-1 fibroblasts, 100 μM highest concentration used): > 100 µM
- effect on clonogenicity (colony formation) [5]: significantly, but modestly, affected clonogenic activity
- effect on clonogenicity (colony formation) [6]: significantly, but modestly, affected clonogenic activity
- effect on clonogenicity (colony formation) [7]: significantly, but modestly, affected clonogenic activity
- effect on percentage of CD133+EpCAM+ cancer stem-like subpopulation [8]: did not affect this subpopulation
- effect on percentage of CD133+EpCAM+ cancer stem-like subpopulation [9]: more marked effect
- effect on percentage of CD133+EpCAM+ cancer stem-like subpopulation [10]: did not affect this subpopulation
- effect on cell growth (cell number) [11]: significantly, drastically, and comparably affected cell growth
- apoptosis induction (Annexin V+ cells) ([12]; AsPC-1, 20 μM): statistically significant apoptosis
- apoptosis induction (Annexin V+ cells) ([12]; AsPC-1, 50 μM): significant but less marked increment of apoptotic cells
- apoptosis induction (Annexin V+ cells) ([13]; BxPC-3, 20 μM): neither compound affected apoptosis
- apoptosis induction (Annexin V+ cells) ([13]; BxPC-3, 50 μM): significant but less marked increment of apoptotic cells
- apoptosis induction (Annexin V+ cells) ([14]; Capan-2, 20 μM): statistically significant apoptosis
- apoptosis induction (Annexin V+ cells) ([14]; Capan-2, 50 μM): significant but less marked increment of apoptotic cells
- effect on cleaved:uncleaved PARP ratio ([15]; AsPC-1, 50 μM): affected the PARP cleavage ratio
- effect on cleaved:uncleaved PARP ratio ([15]; BxPC-3, 50 μM): small
- effect on cleaved:uncleaved PARP ratio ([15]; Capan-2, 50 μM): negligible
- activation (phosphorylation) of H2AX ([16]; AsPC-1, 50 μM): increased H2AX phosphorylation
- activation (phosphorylation) of H2AX ([16]; BxPC-3, 50 μM): to a lesser extent
- activation (phosphorylation) of H2AX ([16]; Capan-2, 50 μM): no activation of H2AX
- effect on cells in G0/G1 phase ([17]; across the three PC cell lines, vs untreated cells): statistically significant accumulation of cells at the G0/G1 phase
- effect on cells in G2/M phase ([17]; three PC cell lines, in Capan-2 it did not reach statistical significance): drastic depletion of cells in the G2/M phase
- effect on cyclin D3 expression [18]: present but less marked
- effect on expression of the cyclin B1/CDK1 complex [19]: much less evident
- Classification (water solubility) [20]: PI (PI (Practically Insoluble))

Compound: Oc1ccc(/C=C/c2ccc3ccccc3c2)cc1 [DF12]
- IC50 [1]: 11.1 µM
- IC50 [2]: 18.3 µM
- IC50 [3]: 58.1 µM
- viability at 50 µM [3]: > 50%
- effect on clonogenicity (colony formation) [5]: relevant effects on clonogenic capacity
- effect on clonogenicity (colony formation) [6]: relevant effects on clonogenic capacity
- effect on clonogenicity (colony formation) [7]: marginal effects
